Test results as given in patent publication US20080280879A1, “SUBSTITUTED HETEROCYCLIC DERIVATIVES AND THEIR PHARMACEUTICAL USE AND COMPOSITIONS” (priority 2007, published 2008).
Converted amounts (≈) assume the structure as drawn.

Tests used:
Assay type in all cases: cell-based, Staphylococcus aureus
Staph aureus 1095 MRSA = experiment: MIC, microtiter broth dilution (CLSI M7-A7), Assay 1, Table 12 column A, no serum; details: Assay 1, no serum; for MIC: Staphylococcus aureus, MRSA
Outline: (§1)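 CLSI microdilution (M7-A7; M100-S16 interpretation); DMSO stocks at 10 mg/ml; endpoint = no macroscopically visible growth; MIC μg/ml, geometric mean if run more than once.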

Staph aureus 1146 [1] = experiment: MIC, microtiter broth dilution (CLSI M7-A7), Assay 1, Table 12 column B, no serum; details: for MIC: Staphylococcus aureus, 1146, Staph aureus 1146, Assay 1, no serum; for MIC, column B: Staph aureus 1146, Assay 1, no serum
Outline: as §1

Staph aureus 1146 [2] = experiment: MIC in Mueller-Hinton Broth with 50% pooled inactivated human serum, Assay 1, Table 12; details: for MIC: Staphylococcus aureus, 1146, Staph aureus 1146, Assay 1, 50% human serum, read-out: MIC, column C; for MIC, column C: Staph aureus 1146, Assay 1, 50% human serum
Outline: as §1

Staph aureus 2811 = experiment: MIC, microtiter broth dilution (CLSI M7-A7), Assay 1, Table 12 column D, no serum; details: for MIC: Staphylococcus aureus, 2811, Staph aureus 2811, Assay 1, no serum; for MIC, column D: Staph aureus 2811, Assay 1, no serum
Outline: as §1

Staph aureus 2812 = experiment: MIC, microtiter broth dilution (CLSI M7-A7), Assay 1, Table 12 column E, no serum; details: for MIC: Staphylococcus aureus, 2812, Staph aureus 2812, Assay 1, no serum; for MIC, column E: Staph aureus 2812, Assay 1, no serum
Outline: as §1

COc1ccc2nccc([C@@H](O)CC[C@@H]3CCN(C4CC(C5CCCC5)C4)C[C@@H]3C(=O)O)c2c1 (stereo partly drawn) [Example 47, (3R,4R)-1-(3-cyclopentylcyclobutyl)-4-[(3S)-3-hydroxy-3-(6-methoxyquinolin-4-yl)propyl]piperidine-3-carboxylic acid]
MIC (Staph aureus 1095 MRSA): 0.125 µg/mL (≈ 0.268 µM) | MIC (Staph aureus 1146 [1]): ≤ 0.0625 µg/mL | MIC (Staph aureus 1146 [2]): 0.5 µg/mL (≈ 1.07 µM) | MIC (Staph aureus 2811): ≤ 0.0625 µg/mL | MIC (Staph aureus 2812): 0.125 µg/mL (≈ 0.268 µM)

COc1ccc2ncc(F)c([C@@H](O)CNC3(C(=O)O)CCCN(C4CC(c5ccccc5)C4)CC3)c2c1 (single isomer, unassigned) [Example 149]
MIC (Staph aureus 1095 MRSA): 8 µg/mL (≈ 15.8 µM) | MIC (Staph aureus 1146 [1]): 2 µg/mL (≈ 3.94 µM) | MIC (Staph aureus 1146 [2]): 4 µg/mL (≈ 7.88 µM) | MIC (Staph aureus 2811): 2 µg/mL (≈ 3.94 µM) | MIC (Staph aureus 2812): 2 µg/mL (≈ 3.94 µM)

COc1ccc2nccc(C(O)CC[C@@H]3CCN(C4CC(c5ccccc5F)C4)C[C@@H]3C(=O)O)c2c1 (stereo partly drawn) [Example 7, (3R,4R)-1-[3-(2-fluorophenyl)cyclobutyl]-4-[3-hydroxy-3-(6-methoxyquinolin-4-yl)propyl] piperidine-3-carboxylic acid]
MIC (Staph aureus 1095 MRSA): 0.25 µg/mL (≈ 0.508 µM) | MIC (Staph aureus 1146 [1]): 0.125 µg/mL (≈ 0.254 µM) | MIC (Staph aureus 1146 [2]): 1 µg/mL (≈ 2.03 µM) | MIC (Staph aureus 2811): 0.125 µg/mL (≈ 0.254 µM) | MIC (Staph aureus 2812): 0.125 µg/mL (≈ 0.254 µM)

COc1ccc2ncc(F)c(C(O)CC[C@@H]3CCN(C4CC(c5cc(F)ccc5F)C4)C[C@@H]3C(=O)O)c2c1 (stereo partly drawn) [Example 39, (3R,4R)-1-[3-(2,5-difluorophenyl)cyclobutyl]-4-[3-(3-fluoro-6-methoxyquinolin-4-yl)-3-hydroxypropyl]piperidine-3-carboxylic acid]
MIC (Staph aureus 1095 MRSA): ≤ 0.125 µg/mL | MIC (Staph aureus 1146 [1]): ≤ 0.0625 µg/mL | MIC (Staph aureus 1146 [2]): 1 µg/mL (≈ 1.89 µM) | MIC (Staph aureus 2811): 0.25 µg/mL (≈ 0.473 µM) | MIC (Staph aureus 2812): ≤ 0.0625 µg/mL

COc1ccc2nccc([C@@H](O)CC[C@@H]3CCN(C4CC(c5c(F)cc(F)cc5F)C4)C[C@@H]3C(=O)O)c2c1 (stereo partly drawn) [Example 69, (3R,4R)-4-[(3S)-3-hydroxy-3-(6-methoxyquinolin-4-yl)propyl]-1-[3-(2,4,6-trifluorophenyl)cyclobutyl]piperidine-3-carboxylic acid]
MIC (Staph aureus 1095 MRSA): 0.5 µg/mL (≈ 0.946 µM) | MIC (Staph aureus 1146 [1]): 0.125 µg/mL (≈ 0.236 µM) | MIC (Staph aureus 1146 [2]): 2 µg/mL (≈ 3.78 µM) | MIC (Staph aureus 2811): 0.125 µg/mL (≈ 0.236 µM) | MIC (Staph aureus 2812): 0.25 µg/mL (≈ 0.473 µM)

COc1ccc2nccc(C(O)CC[C@@H]3CCN(C4CC(c5ccccc5C)C4)C[C@@H]3C(=O)O)c2c1 (stereo partly drawn) [Example 34, (3R,4R)-4-[3-hydroxy-3-(6-methoxyquinolin-4-yl)propyl]-1-[3-(2-methylphenyl)cyclobutyl] piperidine-3-carboxylic acid]
MIC (Staph aureus 1095 MRSA): 1 µg/mL (≈ 2.05 µM) | MIC (Staph aureus 1146 [1]): 1 µg/mL (≈ 2.05 µM) | MIC (Staph aureus 1146 [2]): 16 µg/mL (≈ 32.7 µM) | MIC (Staph aureus 2811): 0.5 µg/mL (≈ 1.02 µM) | MIC (Staph aureus 2812): 0.5 µg/mL (≈ 1.02 µM)

COc1ccc2nccc(C(O)CC[C@@H]3CCN(C4CC(c5nc(C(C)C)no5)C4)C[C@@H]3C(=O)O)c2c1 (stereo partly drawn) [Example 166, (3R,4R)-4-[3-hydroxy-3-(6-methoxyquinolin-4-yl)propyl]-1-[3-(3-isopropyl-1,2,4-oxadiazol-5-yl)cyclobutyl]piperidine-3-carboxylic acid]
MIC (Staph aureus 1095 MRSA): > 64 µg/mL | MIC (Staph aureus 1146 [1]): > 64 µg/mL | MIC (Staph aureus 1146 [2]): > 64 µg/mL | MIC (Staph aureus 2811): > 64 µg/mL | MIC (Staph aureus 2812): > 64 µg/mL

COc1ccc2nccc(C(O)CC[C@@H]3CCN(CC4CC(c5ccccc5)C4)C[C@@H]3C(=O)O)c2c1 (stereo partly drawn) [Example 178, (3R,4R)-4-[3-hydroxy-3-(6-methoxyquinolin-4-yl)propyl]-1-[(3-phenylcyclobutyl)methyl]piperidine-3-carboxylic acid]
MIC, column A (Staph aureus 1095 MRSA): 8.00 µg/mL (≈ 16.4 µM) | MIC, column B (Staph aureus 1146 [1]): 2.00 µg/mL (≈ 4.09 µM) | MIC, column C (Staph aureus 1146 [2]): 32.0 µg/mL (≈ 65.5 µM) | MIC, column D (Staph aureus 2811): 2.00 µg/mL (≈ 4.09 µM) | MIC, column E (Staph aureus 2812): 4.00 µg/mL (≈ 8.19 µM)

O=C(O)[C@H]1CN(C2CC(c3c(F)cccc3F)C2)CC[C@H]1CCC(O)c1c(F)cnc2ccc(O)nc12 (stereo partly drawn) [Example 201, (3R,4R)-1-[3-(2,6-difluorophenyl)cyclobutyl]-4-[3-(3-fluoro-6-hydroxy-1,5-naphthyridin-4-yl)-3-hydroxypropyl]piperidine-3-carboxylic acid]
MIC (Staph aureus 1095 MRSA): 16 µg/mL (≈ 31 µM) | MIC (Staph aureus 1146 [1]): 2 µg/mL (≈ 3.88 µM) | MIC (Staph aureus 1146 [2]): 8 µg/mL (≈ 15.5 µM) | MIC (Staph aureus 2811): 2 µg/mL (≈ 3.88 µM) | MIC (Staph aureus 2812): 4 µg/mL (≈ 7.76 µM)

COc1ccc2nccc(C(O)CC[C@@H]3CCN(C4CC5CCCCC54)C[C@@H]3C(=O)O)c2c1 (stereo partly drawn) [Example 54, (3R,4R)-1-[(1,6)-bicyclo[4.2.0]oct-7-yl]-4-[3-hydroxy-3-(6-methoxyquinolin-4-yl)propyl] piperidine-3-carboxylic acid]
MIC, column A (Staph aureus 1095 MRSA): >64 µg/mL | MIC, column B (Staph aureus 1146 [1]): 64 µg/mL (≈ 141 µM) | MIC, column C (Staph aureus 1146 [2]): >64 µg/mL | MIC, column D (Staph aureus 2811): >64 µg/mL | MIC, column E (Staph aureus 2812): >64 µg/mL

COc1ccc2nccc(C(O)CC[C@@H]3CCN(C4CC(C)(c5ccccc5)C4)C[C@@H]3C(=O)O)c2c1 (stereo partly drawn) [Example 42, (3R,4R)-4-[3-hydroxy-3-(6-methoxyquinolin-4-yl)propyl]-1-(3-methyl-3-phenylcyclobutyl)piperidine-3-carboxylic acid]
MIC (Staph aureus 1095 MRSA): > 64 µg/mL | MIC (Staph aureus 1146 [1]): > 64 µg/mL | MIC (Staph aureus 1146 [2]): 32 µg/mL (≈ 65.5 µM) | MIC (Staph aureus 2811): > 64 µg/mL | MIC (Staph aureus 2812): 32 µg/mL (≈ 65.5 µM)

COc1ccc2ncc(Cl)c(CCNC3CCN(C4CC(c5ccccc5)C4)C(C(=O)O)C3)c2c1 (stereo not shown) [Example 101, (2,4)-4-{[2-(3-chloro-6-methoxyquinolin-4-yl)ethyl]amino}-1-(3-phenylcyclobutyl)piperidine-2-carboxylic acid]
MIC, column A (Staph aureus 1095 MRSA): 0.125 µg/mL (≈ 0.253 µM) | MIC, column B (Staph aureus 1146 [1]): 0.125 µg/mL (≈ 0.253 µM) | MIC, column C (Staph aureus 1146 [2]): 2 µg/mL (≈ 4.05 µM) | MIC, column D (Staph aureus 2811): <=.0625 μg/ml | MIC, column E (Staph aureus 2812): <=.0625 μg/ml

(3R,4R)-1-[3-(2,5-difluorophenyl)cyclobutyl]-4-[3-(3-fluoro-6-methoxy-1,5-naphthyridin-4-yl)-3-hydroxypropyl]piperidine-3-carboxylic acid [Example 219]
MIC, column A (Staph aureus 1095 MRSA): 0.250 µg/mL | MIC, column B (Staph aureus 1146 [1]): <0.0625 µg/mL | MIC, column C (Staph aureus 1146 [2]): 2.00 µg/mL | MIC, column D (Staph aureus 2811): <0.0625 µg/mL | MIC, column E (Staph aureus 2812): 0.125 µg/mL

COc1ccc2ncc(F)c(CCCC3(C(=O)O)CCN(C4CC(c5ccccc5)C4)C3)c2c1 (stereo not shown) [Example 173, 3-[3-(3-fluoro-6-methoxyquinolin-4-yl)propyl]-1-(3-phenylcyclobutyl)pyrrolidine-3-carboxylic acid]
MIC (Staph aureus 1095 MRSA): < 0.0625 µg/mL | MIC (Staph aureus 1146 [1]): < 0.0625 µg/mL | MIC (Staph aureus 1146 [2]): 8 µg/mL (≈ 17.3 µM) | MIC (Staph aureus 2811): < 0.0625 µg/mL | MIC (Staph aureus 2812): < 0.0625 µg/mL

COc1ccc2nccc(C(O)CC[C@@H]3CCN(C4CC(c5cc(C)no5)C4)C[C@@H]3C(=O)O)c2c1 (stereo partly drawn) [Example 115, (3R,4R)-4-[3-hydroxy-3-(6-methoxyquinolin-4-yl)propyl]-1-[3-(3-methylisoxazol-5-yl)cyclobutyl]piperidine-3-carboxylic acid]
MIC (Staph aureus 1095 MRSA): 32 µg/mL (≈ 66.7 µM) | MIC (Staph aureus 1146 [1]): 8 µg/mL (≈ 16.7 µM) | MIC (Staph aureus 1146 [2]): 64 µg/mL (≈ 133 µM) | MIC (Staph aureus 2811): 8 µg/mL (≈ 16.7 µM) | MIC (Staph aureus 2812): 16 µg/mL (≈ 33.4 µM)

COc1ccc2nccc(C(O)CC[C@@H]3CCN(C4CC(c5ccc(F)cc5)C4)C[C@@H]3C(=O)O)c2c1 (stereo partly drawn) [Example 88, (3R,4R)-1-[3-(4-fluorophenyl)cyclobutyl]-4-[3-hydroxy-3-(6-methoxyquinolin-4-yl)propyl]piperidine-3-carboxylic acid]
MIC (Staph aureus 1095 MRSA): 1 µg/mL (≈ 2.03 µM) | MIC (Staph aureus 1146 [1]): 0.5 µg/mL (≈ 1.02 µM) | MIC (Staph aureus 1146 [2]): 4 µg/mL (≈ 8.12 µM) | MIC (Staph aureus 2811): 0.25 µg/mL (≈ 0.508 µM) | MIC (Staph aureus 2812): 0.25 µg/mL (≈ 0.508 µM)

COC(=O)[C@H]1CN(C2CC(c3nnc(C)o3)C2)CC[C@H]1CCC(O)c1ccnc2ccc(OC)cc12 (stereo partly drawn) [Example 99, methyl (3R,4R)-4-[3-hydroxy-3-(6-methoxyquinolin-4-yl)propyl]-1-[3-(5-methyl-1,3,4-oxadiazol-2-yl)cyclobutyl]piperidine-3-carboxylate]
MIC (Staph aureus 1095 MRSA): 64 µg/mL (≈ 129 µM) | MIC (Staph aureus 1146 [1]): 16 µg/mL (≈ 32.3 µM) | MIC (Staph aureus 1146 [2]): > 64 µg/mL | MIC (Staph aureus 2811): 64 µg/mL (≈ 129 µM) | MIC (Staph aureus 2812): > 64 µg/mL
